Eleven molecules from ChEMBL document CHEMBL3046245, “Effects of Ginkgo biloba constituents on fruit-infesting behavior of codling moth (Cydia pomonella) in apples” (2011) can be followed below.

Activity calls are given as the source filed them. The rule behind the calls is not given here.

For test [1], the system named is Cydia pomonella. Kind of test: Inhibition of fruit-infesting behavior of Cydia pomonella (codling moth) neonates infested in apple fruit plugs assessed as feeding deterrence index at 0.5 mg/mL. The format is functional.
Test [2] relates to Cydia pomonella. As to the kind of experiment: Inhibition of fruit-infesting behavior of Cydia pomonella (codling moth) neonates infested in apple fruit plugs assessed as feeding deterrence index at 5 mg/mL. The format is functional.
The test system of test [3] is Cydia pomonella. As to the kind of experiment: Inhibition of fruit-infesting behavior of Cydia pomonella (codling moth) neonates infested in apple fruit plugs assessed as feeding deterrence index at 1 mg/mL. The format is functional.
Test [4] deals with Cydia pomonella. Kind of test: Inhibition of fruit-infesting behavior of Cydia pomonella (codling moth) neonates infested in apple fruit plugs assessed as feeding deterrence index at 10 mg/mL. In kind it is functional.
In test [5] the test system is Cydia pomonella. As to the kind of experiment: Inhibition of fruit-infesting behavior of Cydia pomonella (codling moth) neonates infested in apple fruit plugs assessed as feeding deterrence index at 30 mg/mL. The format is functional, organism-based.
The subject of test [6] is Cydia pomonella. Kind of test: Inhibition of fruit-infesting behavior of Cydia pomonella (codling moth) neonates infested in apple fruit plugs assessed as feeding deterrence index at 60 mg/mL. The format is functional, organism-based.
For test [7], the system named is Cydia pomonella. As to the kind of experiment: Inhibition of fruit-infesting behavior of Cydia pomonella (codling moth) neonates infested in apple fruit plugs assessed as feeding deterrence index at 0.1 mg/mL. In kind it is functional.
For test [8], the system named is Cydia pomonella. Kind of test: Inhibition of fruit-infesting behavior of Cydia pomonella (codling moth) neonates infested in apple fruit plugs assessed as feeding deterrence index at 3 mg/mL. The format is functional.
The test system of test [9] is Cydia pomonella. Kind of test: Inhibition of fruit-infesting behavior of Cydia pomonella (codling moth) neonates infested in apple fruit plugs assessed as feeding deterrence index at 0.01 mg/mL. In kind it is functional.
Test [10] deals with Cydia pomonella. Kind of test: Inhibition of fruit-infesting behavior of Cydia pomonella (codling moth) neonates infested in apple fruit plugs assessed as feeding deterrence index at 0.001 mg/mL. In kind it is functional.
The subject of test [11] is Cydia pomonella. Kind of test: Inhibition of fruit-infesting behavior of Cydia pomonella (codling moth) neonates infested in apple fruit plugs assessed as feeding deterrence index at 0.2 mg/mL. In kind it is functional.
Test [12] relates to Cydia pomonella. Kind of test: Inhibition of fruit-infesting behavior of Cydia pomonella (codling moth) neonates infested in apple fruit plugs assessed as feeding deterrence index at 2 mg/mL. In kind it is functional.

Take `CCCCCC/C=C\CCCCCCCc1cccc(O)c1C(=O)O` [GINGKOLIC ACID]: the FDI in the test with Cydia pomonella [1] is reported as 18.8%; in the test on Cydia pomonella [2], 50%; in the test on Cydia pomonella [3] it was 41.7%; in the test on Cydia pomonella [4], 63.2%.
On to `O=c1c(O)c(-c2ccc(O)cc2)oc2cc(O)cc(O)c12` [KAEMPFEROL], for which the FDI entry in the test on Cydia pomonella [5], in the test with Cydia pomonella [6], in the test with Cydia pomonella [7] and with Cydia pomonella [4] was “inactive” throughout. Moreover, in the test on Cydia pomonella [3], the FDI is reported as 25%.
Regarding `C[C@@H]1C(=O)O[C@H]2C[C@@]34[C@H]5C[C@@H](C(C)(C)C)[C@]36[C@@H](OC(=O)[C@@H]6O)O[C@@]4(C(=O)O5)[C@]21O` [GINKGOLIDE A], the FDI in the test with Cydia pomonella [7] worked out at 7.69%; in the test with Cydia pomonella [3] it was 40.4%; with Cydia pomonella [4], 38.5%.
Consider `COc1cc(-c2oc3cc(O)cc(O)c3c(=O)c2O)ccc1O` [ISORHAMNETIN], for which the FDI with Cydia pomonella [8] was 32.1%; in the test on Cydia pomonella [9], 21.7%; with Cydia pomonella [7] it was 10.3%. Further, the FDI entry with Cydia pomonella [3] was “inactive”.
With `CCCCCCCCCCCCCc1cccc(O)c1C(=O)O` [GINKGOLIC ACID 13:0], the FDI in the test with Cydia pomonella [1] is 23.5%; with Cydia pomonella [2], 0%; in the test on Cydia pomonella [3], 26.1%; in the test on Cydia pomonella [4] it was 42.1%.
As to `C[C@@H]1C(=O)O[C@H]2[C@H](O)[C@@]34O[C@@H]5OC(=O)[C@H](O)[C@@]56[C@H](C(C)(C)C)[C@H](O)C(OC3=O)[C@]64[C@@]12O` (some centres undefined) [GINKGOLIDE C], the FDI with Cydia pomonella [7] is recorded as 11.8%; in the test with Cydia pomonella [3] it was 20%; in the test with Cydia pomonella [4], 10%.
The corresponding values for `C[C@@H]1C(=O)O[C@H]2[C@H](O)[C@@]34[C@H]5C[C@@H](C(C)(C)C)[C@]36[C@@H](OC(=O)[C@@H]6O)O[C@@]4(C(=O)O5)[C@@]12O` [GINKOLIDE B] are 12.5%, 26.1% and 76%.
For the molecule `O=c1c(O)c(-c2ccc(O)c(O)c2)oc2cc(O)cc(O)c12`, the FDI result in the test on Cydia pomonella [5], in the test with Cydia pomonella [7], with Cydia pomonella [3] and in the test on Cydia pomonella [4] was “inactive” in each case.
In the case of `CC(C)(C)[C@]1(O)CC2OC(=O)CC23C(=O)OC2OC(=O)[C@H](O)C231` (some centres undefined) [BILOBALIDE], the FDI in the test on Cydia pomonella [10] is reported as 0%; in the test with Cydia pomonella [9] it was 23.5%; with Cydia pomonella [7], 56.5%; in the test on Cydia pomonella [3], 50%; in the test with Cydia pomonella [4], 75%.
`CCCCCC/C=C\CCCCCCCCCc1cccc(O)c1C(=O)O` [GINKGOLIC ACID 17:1]: the FDI is 37.5% with Cydia pomonella [1], 54.5% in the test on Cydia pomonella [2], 5.3% in the test with Cydia pomonella [3] and 60% with Cydia pomonella [4].
Consider `CCCCCCCCCCCCCCCc1cccc(O)c1C(=O)O` [ANACARDIC ACID], for which the FDI with Cydia pomonella [11] was 25%; in the test with Cydia pomonella [1], 26.7%; in the test with Cydia pomonella [12] it was 73.7%; in the test on Cydia pomonella [2], 81.8%; in the test with Cydia pomonella [3], 91.7%.
